Results published in the supplement of paper PMC10307832.

Tests used:
Assay in all cases: relative viability (nuclei count vs DMSO), 5 days (fraction); higher = more cells survive
Everolimus + AZD7762 = compound: CO[C@H]1C[C@@H]2CC[C@@H](C)[C@@](O)(O2)C(=O)C(=O)N2CCCC[C@H]2C(=O)O[C@H]([C@H](C)C[C@@H]2CC[C@@H](OCCO)[C@H](OC)C2)CC(=O)[C@H](C)/C=C(\C)[C@@H](O)[C@@H](OC)C(=O)[C@H](C)C[C@H](C)/C=C/C=C/C=C/1C [Everolimus] + NC(=O)Nc1cc(-c2cccc(F)c2)sc1C(=O)N[C@H]1CCCNC1 [AZD7762] (partner 0.2 µM)
Procedure, shortened: (§1)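 Lung cancer cell lines were seeded in 1536-well plates and dosed by pin tool the next day, with either a single drug or a fixed anchor-drug dose combined with five library-drug doses (not always all listed) spaced in √10 steps. Five days later, one step fixed the cells and stained their nuclei (final 0.05% Triton X-100, 1% formaldehyde, 1 ug/ml Hoechst), and nuclei were counted on 4× images. Relative viability is the nuclei count in treated wells divided by the count in vehicle wells, and each value is the median of duplicate plates.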

Everolimus + OSI-027 = compound: CO[C@H]1C[C@@H]2CC[C@@H](C)[C@@](O)(O2)C(=O)C(=O)N2CCCC[C@H]2C(=O)O[C@H]([C@H](C)C[C@@H]2CC[C@@H](OCCO)[C@H](OC)C2)CC(=O)[C@H](C)/C=C(\C)[C@@H](O)[C@@H](OC)C(=O)[C@H](C)C[C@H](C)/C=C/C=C/C=C/1C [Everolimus] + COc1cccc2cc(-c3nc([C@H]4CC[C@H](C(=O)O)CC4)n4ncnc(N)c34)[nH]c12 [OSI-027] (partner 0.5 µM)
Procedure, shortened: as §1

Everolimus + Pemetrexed = compound: CO[C@H]1C[C@@H]2CC[C@@H](C)[C@@](O)(O2)C(=O)C(=O)N2CCCC[C@H]2C(=O)O[C@H]([C@H](C)C[C@@H]2CC[C@@H](OCCO)[C@H](OC)C2)CC(=O)[C@H](C)/C=C(\C)[C@@H](O)[C@@H](OC)C(=O)[C@H](C)C[C@H](C)/C=C/C=C/C=C/1C [Everolimus] + Nc1nc2[nH]cc(CCc3ccc(C(=O)N[C@@H](CCC(=O)O)C(=O)O)cc3)c2c(=O)[nH]1 [Pemetrexed] (partner 0.2 µM)
Procedure, shortened: as §1

Everolimus + Foretinib = compound: CO[C@H]1C[C@@H]2CC[C@@H](C)[C@@](O)(O2)C(=O)C(=O)N2CCCC[C@H]2C(=O)O[C@H]([C@H](C)C[C@@H]2CC[C@@H](OCCO)[C@H](OC)C2)CC(=O)[C@H](C)/C=C(\C)[C@@H](O)[C@@H](OC)C(=O)[C@H](C)C[C@H](C)/C=C/C=C/C=C/1C [Everolimus] + COc1cc2c(Oc3ccc(NC(=O)C4(C(=O)Nc5ccc(F)cc5)CC4)cc3F)ccnc2cc1OCCCN1CCOCC1 [Foretinib] (partner 0.25 µM)
Procedure, shortened: as §1

Cell Line	relative viability (Everolimus + AZD7762; first compound 0.01 µM)	relative viability (Everolimus + AZD7762; first compound 0.03162 µM)	relative viability (Everolimus + AZD7762; first compound 0.1 µM)	relative viability (Everolimus + AZD7762; first compound 0.3162 µM)	relative viability (Everolimus + AZD7762; first compound 1 µM)	relative viability (Everolimus + OSI-027; first compound 0.01 µM)	relative viability (Everolimus + OSI-027; first compound 0.03162 µM)	relative viability (Everolimus + OSI-027; first compound 0.1 µM)	relative viability (Everolimus + OSI-027; first compound 0.3162 µM)	relative viability (Everolimus + OSI-027; first compound 1 µM)	relative viability (Everolimus + Pemetrexed; first compound 0.01 µM)	relative viability (Everolimus + Pemetrexed; first compound 0.03162 µM)	relative viability (Everolimus + Pemetrexed; first compound 0.1 µM)	relative viability (Everolimus + Pemetrexed; first compound 0.3162 µM)	relative viability (Everolimus + Pemetrexed; first compound 1 µM)	relative viability (Everolimus + Foretinib; first compound 0.01 µM)	relative viability (Everolimus + Foretinib; first compound 0.03162 µM)	relative viability (Everolimus + Foretinib; first compound 0.1 µM)	relative viability (Everolimus + Foretinib; first compound 0.3162 µM)	relative viability (Everolimus + Foretinib; first compound 1 µM)
HOP-62	0.289	0.346	0.412	0.402	0.37	0.548	0.511	0.448	0.517	0.503	0.326	0.401	0.337	0.375	0.338	0.903	0.835	0.776	0.731	0.779
NCI-H1915	0.632	0.567	0.561	0.587	0.554	0.531	0.516	0.45	0.512	0.49	0.484	0.481	0.469	0.499	0.432	1.04	0.975	0.838	0.972	0.79
NCI-H3122	0.75	0.765	0.711	0.629	0.725	0.463	0.579	0.315	0.454	0.488	0.198	0.232	0.228	0.208	0.201	0.818	0.621	0.351	0.494	0.801
NCI-H1651	0.197	0.218	0.224	0.208	0.231	0.411	0.439	0.384	0.41	0.58	0.398	0.386	0.423	0.41	0.433	0.523	0.556	0.562	0.431	0.558
NCI-H838	0.767	0.777	0.75	0.831	0.763	0.262	0.252	0.233	0.259	0.334	0.229	0.213	0.241	0.228	0.222	0.586	0.629	0.518	0.551	0.56
NCI-H596	0.945	0.726	0.609	0.665	0.674	0.506	0.471	0.417	0.45	0.457	0.454	0.46	0.471	0.433	0.443	0.435	0.494	0.512	0.442	0.477
NCI-H441	0.97	1.17	0.717	0.953	1.01	0.557	0.479	0.474	0.585	0.358	0.275	0.276	0.269	0.262	0.286	0.972	0.863	0.726	0.833	0.659
NCI-H650	0.711	0.737	0.755	0.531	0.69	0.372	–	0.446	0.392	0.363	0.645	0.606	0.626	0.516	0.591	1.01	–	0.842	0.816	0.649
NCI-H1355	0.552	0.468	0.456	0.471	0.376	0.281	0.258	0.231	0.299	0.241	0.747	0.553	0.521	0.502	0.486	0.606	0.548	0.477	0.421	0.482
NCI-H2347	0.651	0.618	0.576	0.622	0.439	0.382	0.253	0.326	0.501	0.34	0.406	0.442	0.486	0.412	0.434	0.855	0.499	0.511	0.684	0.552
LCLC-97TM1	0.273	0.145	0.189	0.221	0.148	0.455	0.362	0.36	0.337	0.458	0.165	0.195	0.196	0.18	0.211	0.833	0.562	0.915	0.904	0.862
EMC-BAC-2	0.846	0.761	0.645	0.653	0.692	0.288	0.275	0.274	0.307	0.283	0.469	0.491	0.445	0.45	0.491	0.66	0.564	0.576	0.643	0.521
NCI-H1975	0.591	0.571	0.533	0.433	0.531	0.496	0.498	0.45	0.473	0.436	0.37	0.343	0.353	0.345	0.339	0.765	0.67	0.714	0.748	0.579
BEN	0.377	0.394	0.417	0.41	0.444	0.247	0.292	0.272	0.253	0.239	0.552	0.458	0.501	0.521	0.618	0.336	0.268	0.277	0.323	0.35
NCI-H23	0.144	0.185	0.218	0.219	0.175	0.382	0.35	0.362	0.41	0.378	0.55	0.398	0.607	0.535	0.472	0.751	0.654	0.527	0.529	0.517
